Each structure is given as a SMILES string. Active and inactive are the calls of the source. The rule behind the calls is not given here.

The target in experiment [1] is T1, Nuclear factor erythroid 2-related factor 2 (Homo sapiens, UniProt Q16236).
T1 sequence (Q16236 whole entry): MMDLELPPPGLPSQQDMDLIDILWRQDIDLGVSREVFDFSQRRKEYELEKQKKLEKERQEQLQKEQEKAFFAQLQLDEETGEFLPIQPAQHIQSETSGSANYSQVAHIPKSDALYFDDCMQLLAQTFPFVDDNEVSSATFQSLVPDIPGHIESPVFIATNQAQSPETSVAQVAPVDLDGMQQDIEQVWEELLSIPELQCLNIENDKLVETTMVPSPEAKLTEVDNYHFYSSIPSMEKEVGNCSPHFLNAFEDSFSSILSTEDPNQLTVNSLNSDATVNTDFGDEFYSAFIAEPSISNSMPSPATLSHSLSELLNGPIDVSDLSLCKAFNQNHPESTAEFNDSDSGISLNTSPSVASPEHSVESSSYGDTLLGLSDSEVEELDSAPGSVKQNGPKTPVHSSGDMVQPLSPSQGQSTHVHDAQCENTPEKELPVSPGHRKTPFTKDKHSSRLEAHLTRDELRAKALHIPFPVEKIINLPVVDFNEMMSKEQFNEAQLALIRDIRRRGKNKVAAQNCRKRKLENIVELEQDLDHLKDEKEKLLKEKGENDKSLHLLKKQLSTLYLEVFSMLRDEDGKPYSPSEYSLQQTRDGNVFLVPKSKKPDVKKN
In words: Activation of Nrf2 in human HaCaT-ARE-Luc cells expressing Nqo1 ARE-Luc reporter plasmid incubated for 6 hrs by luciferase reporter gene assay. The class given is cell-based. For orientation: Reporter assays use an easily measured gene product as a stand-in for the process of interest.

The nature of experiment [2]: Inhibition of TNFalpha-induced NFkappaB (unknown origin) expressed in mouse NIH3T3-KBF-Luc cells pre-incubated for 15 mins before TNFalpha stimulation for 6 hrs by luciferase reporter gene assay. The class given is cell-based, Homo sapiens.
The species entered for another experiment is Homo sapiens. In words: Inhibition of TNFalpha-induced NFkappaB (unknown origin) canonical pathway expressed in mouse NIH3T3-KBF-Luc cells assessed as inhibition of IkappaB-alpha phosphorylation pre-incubated for 15 mins before TNFalpha stimulation for 6 hrs by Western blot analysis. Format: cell-based. On the technique in general: A western blot detects proteins with antibodies after separation by electrophoresis.

In experiment [3] the target is Transcription factor p65 (Homo sapiens) (UniProt Q04206). Description: Inhibition of TNFalpha-induced NFkappaB (unknown origin) canonical pathway expressed in mouse NIH3T3-KBF-Luc cells assessed as inhibition of p65 phosphorylation pre-incubated for 15 mins before TNFalpha stimulation for 6 hrs by Western blot analysis. The class given is cell-based.
Experiment [4] has as its target T2, Nuclear factor erythroid 2-related factor 2 (Homo sapiens) (UniProt Q16236).
T2 sequence (whole entry): T1 sequence (Q16236 whole entry)
Description: Activation of Nrf2 in human HaCaT-ARE-Luc cells expressing Nqo1 ARE-Luc reporter plasmid at 0.1 to 50 uM in presence of 15 mM NAC incubated for 6 hrs by luciferase reporter gene assay. Format: cell-based.

In experiment [5] the test system is HaCaT. Description: Induction of ROS production in human HaCaT cells at 10 uM incubated for 3 hrs by DCFH-DA staining based fluorimetry. The class given is functional, cell-based.
The subject of experiment [6] is HaCaT. In words: Induction of ROS production in human HaCaT cells at 400 uM incubated for 3 hrs by DCFH-DA staining based fluorimetry. The class given is functional, cell-based.

Transcription factor p65 (Homo sapiens), sequence (Q04206 whole entry): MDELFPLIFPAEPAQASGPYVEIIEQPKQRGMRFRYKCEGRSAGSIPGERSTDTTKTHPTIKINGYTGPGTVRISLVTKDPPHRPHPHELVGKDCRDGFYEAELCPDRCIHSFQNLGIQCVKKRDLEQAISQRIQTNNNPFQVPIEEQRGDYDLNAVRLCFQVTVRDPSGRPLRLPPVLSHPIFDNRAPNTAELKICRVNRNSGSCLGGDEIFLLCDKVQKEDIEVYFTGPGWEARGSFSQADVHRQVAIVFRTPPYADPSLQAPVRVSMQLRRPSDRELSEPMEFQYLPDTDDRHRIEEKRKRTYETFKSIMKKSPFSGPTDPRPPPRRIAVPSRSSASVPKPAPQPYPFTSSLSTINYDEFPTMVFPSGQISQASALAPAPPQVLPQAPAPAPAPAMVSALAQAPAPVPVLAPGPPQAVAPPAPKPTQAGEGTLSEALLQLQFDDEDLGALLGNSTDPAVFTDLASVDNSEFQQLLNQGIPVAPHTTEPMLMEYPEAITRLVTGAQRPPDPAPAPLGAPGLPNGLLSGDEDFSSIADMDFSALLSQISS

Take `CC1=CC(O/C=C2/C(=O)C(=C(C)C)CC[C@H]2C)OC1=O` (stereo partly drawn): in experiment [1], the response was half-maximal at 5 µM (EC50). In experiment [2], the IC50 – broadly, the concentration at which inhibition is half-maximal – was greater than 50 µM.
For `CC(C)=CCCC(C)CCOC1C=C(C)C(=O)O1` (stereo not drawn) the same measures were 22.8 µM and greater than 50 µM.
As to `CC1=CC(OC2C[C@H](C)CC[C@H]2C(C)C)OC1=O` (stereo partly drawn), a half-maximal response in experiment [1] (EC50) required 26.3 µM. Moreover, the IC50 in experiment [2] was greater than 50 µM.
Regarding `CC1=CC(O/C=C2/C(=O)C(C)[C@H]3C[C@@]23C(C)C)OC1=O` (stereo partly drawn), the midpoint of the response in experiment [1], the EC50, lay at 1.9 µM. In addition, in experiment [2], the IC50 is greater than 50 µM.
For `COC(=O)[C@@]1(C)CC[C@]2(C)CC[C@]3(C)C(=CC(=O)[C@@H]4[C@@]5(C)C/C(=C\OC6C=C(C)C(=O)O6)C(=O)C(C)(C)[C@@H]5CC[C@]43C)[C@@H]2C1` (stereo partly drawn) the same measures were greater than 50 µM and greater than 50 µM.
Consider `CC1=CC(O/C=C2/C(=O)[C@H](C(C)C)CC[C@H]2C)OC1=O` (stereo partly drawn), for which, in experiment [1], the EC50 – broadly, the midpoint of the concentration-response curve – came to 17.8 µM. This molecule also registered an IC50 in experiment [2] greater than 50 µM.
Molecule `C=C(C)[C@@H]1CC[C@]2(C)CC[C@]3(C)[C@H](CC[C@@H]4[C@@]5(C)C/C(=C\OC6C=C(C)C(=O)O6)C(=O)C(C)(C)[C@@H]5CC[C@]43C)[C@@H]12` (stereo partly drawn) gave a half-maximal effective concentration (EC50) in experiment [1] greater than 50 µM. Further, in experiment [2], the IC50 was greater than 50 µM.
In experiment [1], `CC1=C[C@H](O/C=C2/C(=O)O[C@@H]3C4=C(C[C@H]23)[C@@H](O)CCC4(C)C)OC1=O` [STRIGOL] gave an EC50 of 1.2 µM.
In turn, `CC(C)=CCC/C(C)=C/COC1C=C(C)C(=O)O1` (stereo not drawn) came in with an EC50 in experiment [1] of 16.2 µM. Besides, in experiment [2], the IC50 was greater than 50 µM.
The molecule `CC1=CC(OCC2=CC3CC(C2)C3(C)C)OC1=O` (stereo not drawn) had a concentration giving a half-maximal response (EC50) in experiment [1] of 15.5 µM. The same molecule returned an IC50 in experiment [2] greater than 50 µM.
`CC(C)=CCOC1C=C(C)C(=O)O1` (stereo not drawn) registered an EC50 in experiment [1] of 29.5 µM. Besides, the IC50 in experiment [2] is greater than 50 µM.
Regarding `CC1=CC(O/C=C2\C[C@]3(C)[C@H]4CC=C5[C@@H]6CC(C)(C)CC[C@]6(C)CC[C@@]5(C)[C@]4(C)CC[C@H]3C(C)(C)C2=O)OC1=O` (stereo partly drawn), the EC50 in experiment [1] is greater than 50 µM. The same molecule gave an IC50 in experiment [2] greater than 50 µM.
In experiment [1], `COC(=O)/C(C)=C/CC/C(C)=C/CC/C(C)=C/CC[C@@H]1[C@@]2(C)C/C(=C\OC3C=C(C)C(=O)O3)C(=O)C(C)(C)C2CC[C@@]1(C)O` (stereo partly drawn) gave an EC50 of 2.5 µM.
On to `COC(=O)[C@]12CC[C@@H](C)[C@H](C)[C@H]1C1=CC[C@@H]3[C@@]4(C)C/C(=C\OC5C=C(C)C(=O)O5)C(=O)C(C)(C)[C@@H]4CC[C@@]3(C)[C@]1(C)CC2` (stereo partly drawn), for which the EC50 in experiment [1] is greater than 50 µM. The molecule further showed a half-inhibitory concentration (IC50) in experiment [2] greater than 50 µM. The inhibition result (in the experiment listed under Homo sapiens; in experiment [3]) was “inactive” in each case.
In the case of `COC(=O)[C@]12CCC(C)(C)C[C@H]1C1=CC[C@@H]3[C@@]4(C)C/C(=C\OC5C=C(C)C(=O)O5)C(=O)C(C)(C)[C@@H]4CC[C@@]3(C)[C@]1(C)CC2` (stereo partly drawn), the EC50 in experiment [1] was greater than 50 µM. Besides, in experiment [2], the IC50 was greater than 50 µM.
`CC1=CC(O/C=C2\C[C@]3(C)[C@H]4CC=C5[C@@H]6[C@@H](C)[C@H](C)CC[C@]6(C)CC[C@@]5(C)[C@]4(C)CC[C@H]3C(C)(C)C2=O)OC1=O` (stereo partly drawn) showed an EC50 in experiment [1] greater than 50 µM. In experiment [2], this molecule yielded an IC50 greater than 50 µM.
`C=C(C)[C@@H]1CC[C@]2(C(=O)OC)CC[C@]3(C)[C@H](CC[C@@H]4[C@@]5(C)C/C(=C\OC6C=C(C)C(=O)O6)C(=O)C(C)(C)[C@@H]5CC[C@]43C)[C@@H]12` (stereo partly drawn) came in with an EC50 in experiment [1] greater than 50 µM. For the same molecule, in experiment [2], the IC50 is greater than 50 µM.
With `C=C(C)[C@@H]1CC=C(C)C(=O)/C1=C/OC1C=C(C)C(=O)O1` (stereo partly drawn), in experiment [1], the EC50 was found to be 1.6 µM. In experiment [2], the IC50 was greater than 50 µM.
As to `CC1=CC(O/C=C2\C[C@]3(C)C(COc4ccc5ccc(=O)oc5c4)[C@](C)(O)CC[C@H]3C(C)(C)C2=O)OC1=O` (stereo partly drawn), the EC50 in experiment [1] amounted to 1.2 µM. In experiment [2], this molecule returned an IC50 of 7.9 µM. Also, the result (in experiment [4]; with HaCaT [5]) was inactive.
Turning to `CC1=CC(OCc2ccc(C(C)C)cc2)OC1=O` (stereo not drawn), the midpoint of the response in experiment [1], the EC50, lay at 16.3 µM. Moreover, the IC50 in experiment [2] was greater than 50 µM.
Turning to `CC(C)(C)OO`, in the experiment with HaCaT [6], the outcome was Active.
